This note sets out measurements from PubChem BioAssay AID1645868 (Buhrlage Lab, Dana-Farber Cancer Institute and Novartis …, 2021).

One may read the IC50 as the concentration that gives 50% inhibition.

Each structure is given as a SMILES string. The source made the active and inactive calls.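 Rule for the calls: active = maximal percent inhibition of the deubiquitinase OTUD3 of at least 30% across the tested doses; inactive = the rest.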

The assay has as its target OTU domain-containing protein 3 (Homo sapiens) (UniProt Q5T2D3). Kind of assay: Validation of screening hits, potency titration, in vitro enzymatic, OTU domain-containing protein 3 DUB inhibitors (AID 1645868). The following applies: purified OTUD3, ubiquitin-rhodamine cleavage fluorescence, 2 h.

Sequence of OTU domain-containing protein 3 (Homo sapiens) (Q5T2D3 whole entry, looked up, the tested form may be a part): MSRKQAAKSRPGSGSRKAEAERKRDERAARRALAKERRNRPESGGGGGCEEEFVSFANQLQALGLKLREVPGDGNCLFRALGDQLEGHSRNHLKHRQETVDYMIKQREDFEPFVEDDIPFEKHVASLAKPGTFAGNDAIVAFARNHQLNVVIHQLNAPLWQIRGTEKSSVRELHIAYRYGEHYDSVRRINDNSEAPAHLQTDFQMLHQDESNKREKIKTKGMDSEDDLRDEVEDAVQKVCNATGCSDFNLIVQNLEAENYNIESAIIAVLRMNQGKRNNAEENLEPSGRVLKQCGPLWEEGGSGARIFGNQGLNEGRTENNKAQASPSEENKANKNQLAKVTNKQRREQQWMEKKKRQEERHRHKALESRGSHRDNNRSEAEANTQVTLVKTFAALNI

For the compound `O=C(c1ccc2cc[nH]c2c1)N1CCC(Nc2cccnc2)C1` (configuration not stated), the IC50 is > 50 µM (inactive).

For the compound `O=C(COc1ccc(Cl)cc1)Nc1noc(-c2ccccc2)n1`, the IC50 was 29.2 µM. For `N#Cc1cccc(NC(=O)Nc2cccn(Cc3ccccc3F)c2=O)c1` the value was > 50 µM (inactive); for `O=C(Cc1noc2ccccc12)NCC(=O)Nc1ccc(Cl)cc1`, 22.2 µM; for `O=C(NCc1ccc(-c2nc3cnccc3o2)cc1)c1cc2ccccc2o1`, > 50 µM (inactive). For `CC(C)c1cc(Nc2cccc(F)c2)n2nc(-c3cccnc3)nc2n1` the value was > 50 µM (inactive).

For `COc1ccc(CCNC(=O)CCCn2c(=O)c3ccccc3n(CC(=O)OCc3ccccc3)c2=O)cc1OC`, the IC50 is 21.8 µM. For the compound `COc1ccccc1C(=O)N1CCc2[nH]c3ccc(F)cc3c2C1`, the IC50 is > 50 µM (inactive). For `COCCn1c(=S)[nH]c2cc(C(=O)NCCSCc3ccccc3)ccc2c1=O`, the IC50 is > 50 µM (inactive). In the case of `COc1ccc(Cn2c(=O)[nH]c3cc(C(=O)NCCCN4CCN(c5cccc(Cl)c5)CC4)ccc3c2=O)cc1` it was 10 µM.

In the case of `Cc1cccc(OCCn2c(CCNC(=O)C3CCCCC3)nc3ccccc32)c1`, the IC50 was 32.8 µM. In the case of `Cc1ccccc1NC(=O)CNc1nc(Nc2ccccc2)nc(Nc2ccccc2)n1` it was 21 µM.

As for `FC(F)(F)c1cccc(N2CCN(c3nc4ccccc4n4nnnc34)CC2)c1`, the IC50 was > 50 µM (inactive). For `O=C(Nc1ccc2c(c1)OCCO2)C1CCN(C(=O)c2cc(-c3cccnc3)n[nH]2)CC1` the value was > 50 µM (inactive); for `COc1cc(Cl)ccc1Nc1ncc(C(=O)Nc2cc(OC)c(OC)c(OC)c2)c2ccccc12`, 0.121 µM; for `COc1cccc(OCCCn2c(C(C)NC(=O)c3ccco3)nc3ccccc32)c1` (configuration not stated), 32.8 µM. For `Cc1ccc2[nH]c(=O)c(CN(Cc3cccnc3)C(=O)c3cccc(Cl)c3)cc2c1`, the IC50 was > 50 µM (inactive). In the case of `Cc1ccc2c(=O)c3c([nH]c2c1C)CCN(CC(=O)NCc1ccccc1)C3` it was > 50 µM (inactive). For `CCCCc1nc2sc3c(SCC(=O)NCc4ccccc4)ncnc3c2c2c1CCC2`, the IC50 was > 50 µM (inactive). In the case of `COCCNC(=O)c1ccc(-c2ccc(N3CCCCC3)nc2)cc1` it was 25 µM. In the case of `Cc1ccc2oc(=O)c(S(=O)(=O)N3CCCCC3)cc2c1` it was 43.1 µM; in that of `CCOc1cc(N2CCOCC2)c(OCC)cc1NC(=O)c1cc(-c2ccncc2)nc2ccccc12`, > 50 µM (inactive); in that of `Cc1ccc(C(=O)NCCc2nc(-c3ccc4c(c3)OCO4)n[nH]2)cc1F`, > 50 µM (inactive).

On to `Cc1cc(C)c2nc3c(cc2c1)CN(Cc1ccco1)C(=O)O3`, for which the IC50 was > 50 µM (inactive). As to `CCOc1ccc(NC(=O)CSc2nc3n[nH]c(C)c3c(=N)n2-c2ccc(OC)cc2)cc1`, the IC50 is > 50 µM (inactive). For `COc1ccc(N(CC(=O)NC2CCCCC2)C(=O)c2ccc(-c3ccccc3)[nH]2)cc1OC` the value was 11.8 µM; for `CC1OC(CC(=O)O)CC23OC12C(=O)c1c(O)cccc1C3=O` (configuration not stated), > 50 µM (inactive). `O=C(Nc1cccc(Br)c1)c1cc(-c2cccnc2)n[nH]1`: the IC50 was 10.4 µM. In the case of `CC(C(=O)NCc1ccc2c(c1)OCO2)N1CCN(c2ccc(O)cc2)CC1` (configuration not stated) it was > 50 µM (inactive); in that of `O=C(O)Cc1ccc(Nc2nc3ccccc3n3nnnc23)cc1`, > 50 µM (inactive). For `COc1ccc(NC(=O)Cn2cc(C(=O)c3ccc(F)cc3)c(=O)c3cc(C)ccc32)cc1` the value was 23.2 µM; for `Cc1cc(C(=O)N2CC(C(=O)Nc3cc(C(F)(F)F)ccc3Cl)C2)no1`, > 50 µM (inactive).

Take `Cc1ccc(Cn2cc(-c3noc(-c4ccc[nH]4)n3)nn2)cc1`: the IC50 was 19.8 µM. For `CC(C)N1CC2CN(Cc3ccc(Cl)cc3)CCN2Cc2ccccc21` (configuration not stated) the value was > 50 µM (inactive); for `Fc1cccc(-n2cc(-c3noc(-c4ccc[nH]4)n3)nn2)c1`, > 50 µM (inactive); for `CCN1CCN(C(=O)CCCN(c2ccccc2)S(C)(=O)=O)CC1`, > 50 µM (inactive). For `COc1ccc(C)cc1NC(=O)C(NS(=O)(=O)c1ccc2c(c1)CCN2C(C)=O)C(C)C` (configuration not stated), the IC50 was > 50 µM (inactive). With `O=c1c2cnc(N3CCOCC3)nc2ccn1CCc1ccccc1`, the IC50 is 28 µM. Take `COc1ncccc1CN1CCn2c(Cn3cccn3)cnc2C1C` (configuration not stated): the IC50 is > 50 µM (inactive).

As for `O=C(O)c1nccnc1C(=O)N1CCc2ccccc2C1`, the IC50 was > 50 µM (inactive). In the case of `COc1ccc(OC)c(-n2c(SCC(=O)N3CCc4ccccc43)nnc2-c2cccc(S(=O)(=O)N(C)C)c2)c1` it was > 50 µM (inactive); in that of `CCn1cnc2c1c(=O)n(CC(=O)NCc1ccccc1Cl)c(=O)n2Cc1ccccc1`, > 50 µM (inactive).

For `O=C(Nc1ccc2c(c1)OCCO2)c1cc(CN2CCCC2)on1`, the IC50 was > 50 µM (inactive).

For `CCc1nnc(NC(=O)c2nnn(-c3ccccc3Cl)c2C)s1`, the IC50 was > 50 µM (inactive). Take `Cc1ccc(C)c(NC(=O)CCc2nc(CSc3nc4ccccc4o3)no2)c1`: the IC50 was 22 µM.

Turning to `CNC(=O)c1cc2nc(N(C)C)n(-c3ccccc3)c2s1`, the IC50 is > 50 µM (inactive). For `COc1cccc(N2CCN(C(=O)c3cc(NC(C)=O)cc4nc(C)ccc34)CC2)c1` the value was > 50 µM (inactive); for `Cc1cccc(O)c1-c1nc2c(-c3nc4c(C(=O)O)cccc4o3)cccc2o1`, > 50 µM (inactive); for `CCOC(=O)c1ccc(-n2c(=O)c(C#N)cc3c(=O)n4ccccc4nc32)cc1`, > 50 µM (inactive). For `O=C1CC(C(=O)Nc2ccccc2F)n2nc(-c3ccccc3)cc2N1` (configuration not stated) the value was 25.1 µM. In the case of `CC(=O)Nc1ccc(-n2cnc(C(=O)NC(C)c3ccccc3)c2)nc1` (configuration not stated) it was > 50 µM (inactive); in that of `c1ccc(-c2ccc(NCc3ccc4c(c3)OCO4)nn2)cc1`, 23.1 µM; in that of `Cc1nc(C(=O)N[C@@H](C)C(=O)NCc2ccc3c(c2)OCO3)cc2c1[nH]c1ccccc12`, 37.8 µM.

Consider `Fc1ccc(Nc2nc(Nc3cccc(F)c3)nc3nccnc23)cc1`, for which the IC50 was > 50 µM (inactive). In the case of `Cc1ccccc1NC(=O)c1ccc(N2CCCCC2)nn1` it was > 50 µM (inactive); in that of `Cc1cccc2sc(NC(=O)c3nnn(-c4ccc(F)cc4)n3)nc12`, > 50 µM (inactive). For the compound `CCOc1ccccc1C(=O)NCC(=O)OC(C(=O)c1c[nH]c2ccccc12)c1ccccc1` (configuration not stated), the IC50 was > 50 µM (inactive).

With `Cc1cc(C(=O)CSc2nc3ccccc3[nH]2)c(C)n1Cc1ccco1`, the IC50 was > 50 µM (inactive). For `Cc1ccc(C)c(NC(=O)CSc2nnc(-c3ccccn3)n2Cc2ccco2)c1` the value was > 50 µM (inactive); for `CCOC(=O)c1ccc(NC(=O)COc2cccc3c2CCN(CC)C3=O)cc1`, > 50 µM (inactive). For `Nc1c(C(=O)c2cccs2)oc2nc(-c3ccccc3)cc(-c3ccco3)c12` the value was > 50 µM (inactive).

On to `COc1cc2c(oc(=O)c3cc(C)cc(OC)c32)c2c([C@@H]3OC(C)[C@@H](O)[C@@](C)(O)C3O)ccc(O)c12` (some centres not stated), for which the IC50 was > 50 µM (inactive).
